Test system: HeLa cells
Test: Cell viability assay (Cell-Titer-Glo) of emulsions, one hour
Assay type: cell-based
Method: HeLa cells (obtained from American Type Culture Collection) were maintained in Dulbecco's Modified Eagle's Medium (Gibco) supplemented with 10% fetal bovine serum (Invitrogen) at 37° C. in a humidified 5% CO2 atmosphere. For viability assays testing biocompatibility of the emulsions, cells were plated in a 96-well white opaque plate format at 40,000 cells per well, allowed to seed overnight, and then treated with emulsions at indicated concentrations for one hour. These viability assays utilized the Cell-Titer-Glo 2.0 reagent (Promega, G9243) according to the manufacturer's instructions. Briefly, 100 μL of Cell-Titer-Glo 2.0 reagent, diluted at 1:1 with culture media, was added to each well containing 100 μl emultion-particles-containing media. Plates were gently agitated for 2 minutes and incubated at room temperature for 10 minutes in the dark to promote adequate mixing. Luminescence was subsequently measured using a Victor 5 plate reader (Perkin Elmer). The intensity of luminescence was normalized to that of cells with no emulsion particles added.

Pluronic F127
biocompatibility of emulsion surfactants: biocompatible and nontoxic to the cells

Tween 80
biocompatibility of emulsion surfactants: only Pluronic F127 was found to be biocompatible and nontoxic

Source: patent US20240110150A1, “PHOTON UPCONVERSION BIOMATERIALS, MICELLE AND NANOPARTICLES FOR THREE-DIMENSIONAL (3D) OPTOGENETICS” (THE TRUESTEES OF COLUMBIA UNIVERSITY IN THE CITY OF NEW YORK, priority 2020, published 2024)
